AC40 data for one compound are collected here from PubChem BioAssay AID720625 (Broad Institute, 2013).

Results filed as inconclusive are left out.

This test relates to HRAS cells, caspase 3/7 apoptosis luminescence, multiple timepoints. Put plainly: caspase 3/7 apoptosis readout in HRAS cells, mechanism study for HRAS target identification, cell-based, caspase 3/7 luminescence, plate reader, dry powder (AID 720625).

For the compound `COc1ccc(N(C(=O)CCl)C(C(=O)NCCc2ccccc2)c2cccs2)cc1Cl` (centres undefined), the AC40 was 7.66 µM. For the setting “measured here: timepoint 1”, the AC40 worked out at 22.2 µM. The AC40 (measured here: timepoint 2) stood at 0.177 µM. For the setting “measured here: timepoint 3”, this compound displayed an AC40 of 0.551 µM.
